Data: patent publication US10947271B2, “Antibacterial agents” (THE UNIVERSITY OF QUEENSLAND, priority 2014, dated 2021)

Experiments:
Format in all cases: cell-based
Conditions in all cases: 24 h incubation, visual reading
[1] = system: Staphylococcus aureus MRSA ATCC 43300; assay: MIC assay, S. aureus MRSA ATCC 43300
In short: (§1)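 Overnight MHB cultures at 37° C were diluted 40-fold and grown 2-3 hrs to mid-log, then added at 5×10e5 CFU/mL to twofold compound dilutions (8 to 0.003 μg/ml). Plates were incubated 24 h at 37° C and MIC scored by eye.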

[2] = system: Streptococcus pneumoniae MDR ATCC 700677; assay: MIC assay, S. pneumoniae MDR ATCC 700677
In short: as §1

[3] = system: Enterococcus faecium MDR Van A ATCC 51559; assay: MIC assay, E. faecium MDR Van A ATCC 51559
In short: as §1

SMILES | Minimum Inhibitory Concentration (MIC) Staph. aureus ATCC43300 [1] | Minimum Inhibitory Concentration (MIC) S. pneumoniae ATCC 700677 [2] | Minimum Inhibitory Concentration (MIC) E. faecium ATCC51559 [3]
CCCCCCCC(=O)N[C@@H](CCCCN)C(=O)N[C@@H](CCCCN)C(=O)N[C@@H](CCCCNC(=O)[C@H]1NC(=O)[C@H]2NC(=O)[C@H](NC(=O)[C@@H]3NC(=O)[C@H](CC(N)=O)NC(=O)[C@H](NC(=O)[C@@H](CC(C)C)NC)[C@H](O)c4ccc(c(Cl)c4)Oc4cc3cc(c4O[C@@H]3O[C@H](CO)[C@@H](O)[C@H](O)[C@H]3O[C@H]3C[C@](C)(N)[C@H](O)[C@H](C)O3)Oc3ccc(cc3Cl)[C@H]2O)c2ccc(O)c(c2)-c2c(O)cc(O)cc21)C(=O)O [MCC_005225] | xx (xx = 1-4) | xx (xx = 1-4) | x (x = >4)
CCCCCOc1ccc(C(=O)NC(CCCCN)C(=O)NC(CCCCN)C(=O)NCCCNC(=O)C2NC(=O)C3NC(=O)C(NC(=O)C4NC(=O)C(CC(N)=O)NC(=O)C(NC(=O)C(CC(C)C)NC)C(O)c5ccc(c(Cl)c5)Oc5cc4cc(c5OC4OC(CO)C(O)C(O)C4OC4CC(C)(N)C(O)C(C)O4)Oc4ccc(cc4Cl)C3O)c3ccc(O)c(c3)-c3c(O)cc(O)cc32)cc1 (stereo not drawn) [MCC_005361] | xxxx (xxxx = 0.01-<0.1) | xxxx (xxxx = 0.01-<0.1) | xx (xx = 1-4)
CCC(=O)N[C@@H](CCCCN)C(=O)N[C@@H](CCCCN)C(=O)N[C@@H](CCCCNC(=O)[C@H]1NC(=O)[C@H]2NC(=O)[C@H](NC(=O)[C@@H]3NC(=O)[C@H](CC(N)=O)NC(=O)[C@H](NC(=O)[C@@H](CC(C)C)NC)[C@H](O)c4ccc(c(Cl)c4)Oc4cc3cc(c4O[C@@H]3O[C@H](CO)[C@@H](O)[C@H](O)[C@H]3O[C@H]3C[C@](C)(N)[C@H](O)[C@H](C)O3)Oc3ccc(cc3Cl)[C@H]2O)c2ccc(O)c(c2)-c2c(O)cc(O)cc21)C(=O)O [MCC_005388] | xx (xx = 1-4) | x (x = >4) | x (x = >4)
CCCCCCCCCC(=O)N[C@@H](CCCNC(=N)N)C(=O)N1CCC(CNC(=O)[C@H]2NC(=O)[C@H]3NC(=O)[C@H](NC(=O)[C@@H]4NC(=O)[C@H](CC(N)=O)NC(=O)[C@H](NC(=O)[C@@H](CC(C)C)NC)[C@H](O)c5ccc(c(Cl)c5)Oc5cc4cc(c5O[C@@H]4O[C@H](CO)[C@@H](O)[C@H](O)[C@H]4O[C@H]4C[C@](C)(N)[C@H](O)[C@H](C)O4)Oc4ccc(cc4Cl)[C@H]3O)c3ccc(O)c(c3)-c3c(O)cc(O)cc32)CC1 [MCC_005484] | xxxxx (xxxxx = <0.01) | xxxxx (xxxxx = <0.01) | x (x = >4)
CCCCCC1CCC(C(=O)NC(CCCCN)C(=O)NC(CCCCN)C(=O)NCCCNC(=O)C2NC(=O)C3NC(=O)C(NC(=O)C4NC(=O)C(CC(N)=O)NC(=O)C(NC(=O)C(CC(C)C)NC)C(O)c5ccc(c(Cl)c5)Oc5cc4cc(c5OC4OC(CO)C(O)C(O)C4OC4CC(C)(N)C(O)C(C)O4)Oc4ccc(cc4Cl)C3O)c3ccc(O)c(c3)-c3c(O)cc(O)cc32)CC1 (stereo not drawn) [MCC_005485] | xxxxx (xxxxx = <0.01) | xxxxx (xxxxx = <0.01) | xx (xx = 1-4)
CCCCCCCCCC(=O)NC(CCCCN)C(=O)NC(CCCNC(=N)N)C(=O)NCCCNC(=O)C1NC(=O)C2NC(=O)C(NC(=O)C3NC(=O)C(CC(N)=O)NC(=O)C(NC(=O)C(CC(C)C)NC)C(O)c4ccc(c(Cl)c4)Oc4cc3cc(c4OC3OC(CO)C(O)C(O)C3OC3CC(C)(N)C(O)C(C)O3)Oc3ccc(cc3Cl)C2O)c2ccc(O)c(c2)-c2c(O)cc(O)cc21 (stereo not drawn) [MCC_005486] | xxxxx (xxxxx = <0.01) | xxxx (xxxx = 0.01-<0.1) | xx (xx = 1-4)
CCCCCCCCCC(=O)NC(CCCNC(=N)N)C(=O)NC(CCCCN)C(=O)NCCCNC(=O)C1NC(=O)C2NC(=O)C(NC(=O)C3NC(=O)C(CC(N)=O)NC(=O)C(NC(=O)C(CC(C)C)NC)C(O)c4ccc(c(Cl)c4)Oc4cc3cc(c4OC3OC(CO)C(O)C(O)C3OC3CC(C)(N)C(O)C(C)O3)Oc3ccc(cc3Cl)C2O)c2ccc(O)c(c2)-c2c(O)cc(O)cc21 (stereo not drawn) [MCC_005487] | xxxxx (xxxxx = <0.01) | xxxx (xxxx = 0.01-<0.1) | xxx (xxx = 0.1-<1)
CCCCCCCCCC(=O)N[C@@H](CCCCN)C(=O)N1CCC(CNC(=O)[C@H]2NC(=O)[C@H]3NC(=O)[C@H](NC(=O)[C@@H]4NC(=O)[C@H](CC(N)=O)NC(=O)[C@H](NC(=O)[C@@H](CC(C)C)NC)[C@H](O)c5ccc(c(Cl)c5)Oc5cc4cc(c5O[C@@H]4O[C@H](CO)[C@@H](O)[C@H](O)[C@H]4O[C@H]4C[C@](C)(N)[C@H](O)[C@H](C)O4)Oc4ccc(cc4Cl)[C@H]3O)c3ccc(O)c(c3)-c3c(O)cc(O)cc32)CC1 [MCC_005488] | xxxx (xxxx = 0.01-<0.1) | xxxx (xxxx = 0.01-<0.1) | xx (xx = 1-4)
CN[C@H](CC(C)C)C(=O)N[C@H]1C(=O)N[C@@H](CC(N)=O)C(=O)N[C@H]2C(=O)N[C@H]3C(=O)N[C@H](C(=O)N[C@H](C(=O)NCCCC[C@H](NC(=O)[C@H](CCCCN)NC(=O)[C@H](CCCCN)NC(=O)CCCOc4ccccc4)C(=O)O)c4cc(O)cc(O)c4-c4cc3ccc4O)[C@H](O)c3ccc(c(Cl)c3)Oc3cc2cc(c3O[C@@H]2O[C@H](CO)[C@@H](O)[C@H](O)[C@H]2O[C@H]2C[C@](C)(N)[C@H](O)[C@H](C)O2)Oc2ccc(cc2Cl)[C@H]1O [MCC_005501] | xx (xx = 1-4) | xx (xx = 1-4) | x (x = >4)

Now from value to compound:

Minimum Inhibitory Concentration (MIC) Staph. aureus ATCC43300 [1] | Minimum Inhibitory Concentration (MIC) S. pneumoniae ATCC 700677 [2] | Minimum Inhibitory Concentration (MIC) E. faecium ATCC51559 [3] | SMILES
xxxxx (xxxxx = <0.01) | xxxxx (xxxxx = <0.01) | xx (xx = 1-4) | CCCCCCCCCC(=O)N[C@@H](CCCNC(=N)N)C(=O)N[C@@H](CCCNC(=N)N)C(=O)NCCCNC(=O)[C@H]1NC(=O)[C@H]2NC(=O)[C@H](NC(=O)[C@@H]3NC(=O)[C@H](CC(N)=O)NC(=O)[C@H](NC(=O)[C@@H](CC(C)C)NC)[C@H](O)c4ccc(c(Cl)c4)Oc4cc3cc(c4O[C@@H]3O[C@H](CO)[C@@H](O)[C@H](O)[C@H]3O[C@H]3C[C@](C)(N)[C@H](O)[C@H](C)O3)Oc3ccc(cc3Cl)[C@H]2O)c2ccc(O)c(c2)-c2c(O)cc(O)cc21 [MCC_005482]
xx (xx = 1-4) | xx (xx = 1-4) | x (x = >4) | CN[C@H](CC(C)C)C(=O)N[C@H]1C(=O)N[C@@H](CC(N)=O)C(=O)N[C@H]2C(=O)N[C@H]3C(=O)N[C@H](C(=O)N[C@H](C(=O)NCCCC[C@H](NC(=O)[C@H](CCCCN)NC(=O)[C@H](CCCCN)NC(=O)CC4CCCCC4)C(=O)O)c4cc(O)cc(O)c4-c4cc3ccc4O)[C@H](O)c3ccc(c(Cl)c3)Oc3cc2cc(c3O[C@@H]2O[C@H](CO)[C@@H](O)[C@H](O)[C@H]2O[C@H]2C[C@](C)(N)[C@H](O)[C@H](C)O2)Oc2ccc(cc2Cl)[C@H]1O [MCC_005502]
xxxx (xxxx = 0.01-<0.1) | xxxx (xxxx = 0.01-<0.1) | xx (xx = 1-4) | CCCCCC1CCC(C(=O)N[C@@H](CCCCN)C(=O)N[C@@H](CCCCN)C(=O)N[C@@H](CCCCNC(=O)[C@H]2NC(=O)[C@H]3NC(=O)[C@H](NC(=O)[C@@H]4NC(=O)[C@H](CC(N)=O)NC(=O)[C@H](NC(=O)[C@@H](CC(C)C)NC)[C@H](O)c5ccc(c(Cl)c5)Oc5cc4cc(c5O[C@@H]4O[C@H](CO)[C@@H](O)[C@H](O)[C@H]4O[C@H]4C[C@](C)(N)[C@H](O)[C@H](C)O4)Oc4ccc(cc4Cl)[C@H]3O)c3ccc(O)c(c3)-c3c(O)cc(O)cc32)C(=O)O)CC1 (stereo partly drawn) [MCC_005503]
xxx (xxx = 0.1-<1) | xxx (xxx = 0.1-<1) | x (x = >4) | CCCCCOc1ccc(C(=O)N[C@@H](CCCCN)C(=O)N[C@@H](CCCCN)C(=O)N[C@@H](CCCCNC(=O)[C@H]2NC(=O)[C@H]3NC(=O)[C@H](NC(=O)[C@@H]4NC(=O)[C@H](CC(N)=O)NC(=O)[C@H](NC(=O)[C@@H](CC(C)C)NC)[C@H](O)c5ccc(c(Cl)c5)Oc5cc4cc(c5O[C@@H]4O[C@H](CO)[C@@H](O)[C@H](O)[C@H]4O[C@H]4C[C@](C)(N)[C@H](O)[C@H](C)O4)Oc4ccc(cc4Cl)[C@H]3O)c3ccc(O)c(c3)-c3c(O)cc(O)cc32)C(=O)O)cc1 [MCC_005504]
xx (xx = 1-4) | xx (xx = 1-4) | x (x = >4) | CN[C@H](CC(C)C)C(=O)N[C@H]1C(=O)N[C@@H](CC(N)=O)C(=O)N[C@H]2C(=O)N[C@H]3C(=O)N[C@H](C(=O)N[C@H](C(=O)NCCCC[C@H](NC(=O)[C@H](CCCCN)NC(=O)[C@H](CCCCN)NC(=O)c4ccc(Cl)cc4)C(=O)O)c4cc(O)cc(O)c4-c4cc3ccc4O)[C@H](O)c3ccc(c(Cl)c3)Oc3cc2cc(c3O[C@@H]2O[C@H](CO)[C@@H](O)[C@H](O)[C@H]2O[C@H]2C[C@](C)(N)[C@H](O)[C@H](C)O2)Oc2ccc(cc2Cl)[C@H]1O [MCC_005505]
